Data set [1] concerns Hepatitis C virus. The experiment in a line: Antiviral activity against Hepatitis C virus genotype 1b infected in human HuH7 cells after 48 hrs by luciferase reporter gene assay. The note with it: Huh-7, 48 h. It counts as functional, organism-based, Hepacivirus hominis.
The test system of data set [2] is Hepatitis C virus. The experiment in a line: Antiviral activity against Hepatitis C virus genotype 1a infected in human HuH7 cells after 48 hrs by luciferase reporter gene assay. Type of data set: functional, organism-based, Hepacivirus hominis. The note with it: subtype 1a, Huh-7, 48 h. On the technique in general: In a reporter assay the amount or activity of a reporter protein is the signal.

Data set [3] can be described thus: Stability of the compound in water assessed as 5-((2-(2,3-Difluorophenyl)-5H-imidazo[4,5-d]pyridazin-5-yl)-methyl)-3-(4-propoxy-2-(trifluoromethyl)phenyl)isoxazole level at 1 uM at pH 7 up to 60 mins by LC/MS/MS analysis. Type of data set: physicochemical. The following applies: buffer, pH 7, 1 h.
A short description of data set [4]: AUC in CD rat at 1000 mg/kg by LC/MS/MS analysis. The following applies: plasma. More on the design: dose 1000 mg/kg. Type of data set: ADME, organism-based.
The nature of data set [5]: Solubility of the compound in phosphate buffered saline at pH 7.4 after 1 hr by chemiluminescence nitrogen detection assay. Type of data set: physicochemical.
Data set [6] can be described thus: Stability in rat microsomes assessed as 5-((2-(2,3-Difluorophenyl)-5H-imidazo[4,5-d]pyridazin-5-yl)-methyl)-3-(4-propoxy-2-(trifluoromethyl)phenyl)isoxazole level at 0.5 uM by LC/MS/MS analysis. It counts as ADME, Microsome.
A short description of data set [7]: Oral bioavailability in CD rat at 5 mg/kg by LC/MS/MS analysis. It counts as ADME, organism-based. The following applies: in vivo.
Data set [8] in a line: Half life in blood (unknown origin) assessed as 5-((2-(2,3-Difluorophenyl)-5H-imidazo[4,5-d]pyridazin-5-yl)-methyl)-3-(4-propoxy-2-(trifluoromethyl)phenyl)isoxazole level. Type of data set: ADME, tissue-based.
Data set [9] is described as follows: Stability of the compound in water assessed as 5-((2-(2,3-Difluorophenyl)-5H-imidazo[4,5-d]pyridazin-5-yl)-methyl)-3-(4-propoxy-2-(trifluoromethyl)phenyl)isoxazole level at 1 uM at pH 2 up to 60 mins by LC/MS/MS analysis. Type of data set: physicochemical. The note with it: buffer, pH 2, 1 h.
Data set [10] has as its system Hepatocyte. The experiment in a line: Stability in rat hepatocytes assessed as 5-((2-(2,3-Difluorophenyl)-5H-imidazo[4,5-d]pyridazin-5-yl)-methyl)-3-(4-propoxy-2-(trifluoromethyl)phenyl)isoxazole level at 0.5 uM by LC/MS/MS analysis. It counts as ADME, cell-based.
A short description of data set [11]: Oral bioavailability in beagle dog at 5 mg/kg by LC/MS/MS analysis. Type of data set: ADME, organism-based, Canis lupus familiaris. The note with it: in vivo.
In data set [12] the test system is Hepatocyte. As to the kind of experiment: Half life in rat hepatocytes assessed as 5-((2-(2,3-Difluorophenyl)-5H-imidazo[4,5-d]pyridazin-5-yl)-methyl)-3-(4-propoxy-2-(trifluoromethyl)phenyl)isoxazole level. It counts as ADME, cell-based.
Data set [13] can be described thus: Stability of the compound in blood (unknown origin) assessed as 5-((2-(2,3-Difluorophenyl)-5H-imidazo[4,5-d]pyridazin-5-yl)-methyl)-3-(4-propoxy-2-(trifluoromethyl)phenyl)isoxazole level at 1 uM up to 60 mins by LC/MS/MS analysis. Type of data set: ADME, tissue-based. The following applies: 1 h.
The subject of another data set is Canis familiaris. As to the kind of experiment: Hepatotoxicity in beagle dog at 10 to 600 mg/kg/day, po qd for 7 days. Type of data set: toxicity, organism-based, Canis lupus familiaris. Also noted: route oral. The following applies: in vivo, 168 h.
In a further data set the test system is Rattus norvegicus. The experiment in a line: Toxicity in rat at 10 to 1000 mg/kg/day, po qd for 7 days. Type of data set: organism-based. Also noted: route oral. The note with it: in vivo, 168 h.
The target of data set [14] is Voltage-gated inwardly rectifying potassium channel KCNH2 (Homo sapiens, UniProt Q12809). The experiment in a line: Inhibition of human ERG expressed in CHO cells.
Chain of Voltage-gated inwardly rectifying potassium channel KCNH2 (Q12809 whole entry): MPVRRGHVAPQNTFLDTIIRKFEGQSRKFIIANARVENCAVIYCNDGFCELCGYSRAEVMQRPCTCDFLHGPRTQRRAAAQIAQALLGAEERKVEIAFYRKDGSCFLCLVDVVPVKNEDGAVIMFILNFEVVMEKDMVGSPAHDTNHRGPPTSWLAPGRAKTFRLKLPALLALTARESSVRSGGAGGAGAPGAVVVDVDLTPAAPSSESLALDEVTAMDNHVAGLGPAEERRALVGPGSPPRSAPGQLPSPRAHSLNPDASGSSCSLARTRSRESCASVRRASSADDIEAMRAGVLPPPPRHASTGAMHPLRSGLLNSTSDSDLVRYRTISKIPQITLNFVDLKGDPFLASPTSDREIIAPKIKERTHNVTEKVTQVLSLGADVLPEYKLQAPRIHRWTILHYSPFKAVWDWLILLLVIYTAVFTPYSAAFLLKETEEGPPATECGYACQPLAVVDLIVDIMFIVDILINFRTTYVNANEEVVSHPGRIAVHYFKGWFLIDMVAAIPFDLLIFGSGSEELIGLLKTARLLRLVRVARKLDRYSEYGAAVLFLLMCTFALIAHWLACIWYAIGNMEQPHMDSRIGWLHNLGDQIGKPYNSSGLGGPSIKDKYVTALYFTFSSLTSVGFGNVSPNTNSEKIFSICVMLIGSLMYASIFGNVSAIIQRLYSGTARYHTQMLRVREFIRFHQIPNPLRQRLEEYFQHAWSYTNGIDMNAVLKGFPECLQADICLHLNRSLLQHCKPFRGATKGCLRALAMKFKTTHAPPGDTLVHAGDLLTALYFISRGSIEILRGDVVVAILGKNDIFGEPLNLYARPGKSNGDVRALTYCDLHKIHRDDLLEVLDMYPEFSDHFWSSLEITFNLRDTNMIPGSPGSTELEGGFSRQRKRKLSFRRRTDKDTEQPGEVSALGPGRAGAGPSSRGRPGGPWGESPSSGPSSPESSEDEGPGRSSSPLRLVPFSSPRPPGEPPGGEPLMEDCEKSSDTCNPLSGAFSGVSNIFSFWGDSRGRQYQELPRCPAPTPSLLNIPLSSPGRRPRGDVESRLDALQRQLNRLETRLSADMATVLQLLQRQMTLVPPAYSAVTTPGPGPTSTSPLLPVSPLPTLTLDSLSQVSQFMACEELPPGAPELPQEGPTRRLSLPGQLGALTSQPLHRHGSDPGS

Converted amounts (≈) assume the structure as drawn. A value given as a limit tells only on which side of the number the result lay.

One may read the EC50 as the midpoint of the concentration-response curve. Lower therefore signals higher potency in that assay. One may read the AUC as the area under the concentration-time curve, a measure of exposure. A lower AUC goes with less exposure. In general, solubility (kinetic) refers to solubility judged after dilution from a stock solution rather than from solid. Usually bioavailability stands for the share of a dose that reaches the circulation, judged against a reference dose that is usually intravenous. Low values mean poor availability, high ones good availability. Usually IC50 stands for the concentration needed to halve the response being measured. Higher therefore signals a need for much substance.

As to `Fc1cccc(-c2nc3cnn(Cc4cc(-c5ccc(C(F)(F)F)cc5C(F)(F)F)no4)cc-3n2)c1`, the half-maximal effective concentration (EC50) in the data set on Hepatitis C virus [1] was above 50000 nM.
For `CCCOc1ccc(-c2cnc(Cn3cc4nc(-c5cccc(F)c5F)nc-4cn3)nc2)c(C(F)(F)F)c1`, the EC50 was found to be 300 nM with Hepatitis C virus [2] and 240 nM in the data set with Hepatitis C virus [1].
Turning to `CC(C)(c1cc(-c2ccc(C(F)(F)F)cc2C(F)(F)F)no1)n1cc2nc(-c3cccc(F)c3F)nc-2cn1`, the EC50 is 5400 nM with Hepatitis C virus [2] and 1500 nM with Hepatitis C virus [1].
`CCCOc1ccc(-c2cc(C(C(=O)OC)n3cc4nc(-c5cccc(F)c5F)nc-4cn3)on2)c(C(F)(F)F)c1` (stereo not given): the Stability entry (in [3]; in data set [6]; in [9]; with Hepatocyte [10]; in data set [13]) was “Stable” in each case. The compound also gave an exposure (AUC) in data set [4] of 118 µg·h/mL. This compound also came in with a kinetic solubility at 1 h in data set [5] of 17 µM (≈ 9.75 µg/mL). Further, the bioavailability in [7] was 80%; in data set [11] it was 51%. Moreover, the t1/2 (in data set [8]; in the data set on Hepatocyte [12]) was 15 min each time. For the same compound, the concentration giving a half-maximal response (EC50) came to 21 nM in the data set with Hepatitis C virus [2] and 3 nM in the data set with Hepatitis C virus [1].
The compound `CCCOc1ccc(-c2cc(C(C(=O)OCCCO)n3cc4nc(-c5cccc(F)c5F)nc-4cn3)on2)c(C(F)(F)F)c1` (stereo not given) returned an AUC in data set [4] of 64 µg·h/mL. For the same compound, the kinetic solubility at 1 h in data set [5] was 14 µM (≈ 8.65 µg/mL). In addition, the results for the bioavailability in [7] and in data set [11] were 91% and 63%, respectively. Besides, the EC50 is 23 nM with Hepatitis C virus [2] and 6 nM in the data set on Hepatitis C virus [1].
`CCCOc1ccc(-c2cc(C(C(=O)OCCOCCO)n3cc4nc(-c5cccc(F)c5F)nc-4cn3)on2)c(C(F)(F)F)c1` (stereo not given) showed an AUC in data set [4] of 325 µg·h/mL. The same compound gave a solubility (kinetic) at 1 h in data set [5] of 24 µM (≈ 15.5 µg/mL). Also, the bioavailability was 98% in data set [7] and 91% in data set [11]. The Activity result is recorded as “Toxic” in the data set on Canis familiaris and “Non-toxic” with Rattus norvegicus. Also, the half-maximal effective concentration (EC50) is 11 nM with Hepatitis C virus [2] and 3 nM in the data set on Hepatitis C virus [1].
`Fc1ccccc1-c1nc2cnn(Cc3cc(-c4ccc(Cl)cc4)no3)cc-2n1` returned an EC50 in the data set on Hepatitis C virus [1] of 170 nM.
`Fc1ccccc1-c1nc2ccn(Cc3cc(-c4ccc(C(F)(F)F)cc4C(F)(F)F)no3)cc-2n1` had an IC50 in data set [14] of 794 nM.
On to `Fc1cccc(-c2nc3cnn(Cc4cc(-c5ccc(C(F)(F)F)nc5)no4)cc-3n2)c1F`, for which, in the data set with Hepatitis C virus [1], the EC50 was determined as 300 nM.
For the compound `CCCOc1cnc(-c2cc(Cn3cc4nc(-c5cccc(F)c5F)nc-4cn3)on2)cn1`, the concentration giving a half-maximal response (EC50) stood at 1400 nM in the data set on Hepatitis C virus [2] and 220 nM with Hepatitis C virus [1].
In the same order, the values of `COc1ncc(-c2cc(Cn3cc4nc(-c5cccc(F)c5F)nc-4cn3)on2)cn1` are above 50000 nM and above 50000 nM.
Turning to `Fc1cccc(-c2nc3cnn(Cc4cc(-c5ccc(C(F)(F)F)cc5)no4)cc-3n2)c1F`, the values for the half-maximal effective concentration (EC50) in the data set on Hepatitis C virus [2] and with Hepatitis C virus [1] were 70 nM and 24 nM, respectively.
In the same order, the values of `CCCCc1ccc(-c2cc(Cn3cc4nc(-c5cccc(F)c5F)nc-4cn3)on2)cc1` are 80 nM and 10 nM.
Consider `Cc1ccc(-c2cc(Cn3cc4nc(-c5cccc(F)c5F)nc-4cn3)on2)cc1`, for which the results for the EC50 in the data set on Hepatitis C virus [2] and in the data set with Hepatitis C virus [1] were 110 nM and 23 nM, respectively.

The values are drawn from ChEMBL document CHEMBL3120081, “Imidazopyridazine hepatitis C virus polymerase inhibitors. Structure-activity relationship studies and the discovery of a novel, traceless prodrug mechanism” (J Med Chem, 2014).
